Data from patent US10570172B1 (priority 2008, dated 2020).

Molecular target: PrP (Mesocricetus auratus, UniProt P04273)
Assay type: binding, hamster

Sequence of PrP (P04273 23-231 limits assumed): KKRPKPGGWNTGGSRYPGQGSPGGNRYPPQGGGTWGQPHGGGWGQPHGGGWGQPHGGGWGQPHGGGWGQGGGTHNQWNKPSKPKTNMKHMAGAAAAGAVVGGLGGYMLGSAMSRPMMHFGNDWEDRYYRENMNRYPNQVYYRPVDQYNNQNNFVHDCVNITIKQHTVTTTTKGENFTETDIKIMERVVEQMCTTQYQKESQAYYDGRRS

## Nc1c(/N=N/c2ccc(-c3ccc(/N=N/c4cc(S(=O)(=O)O)c5ccccc5c4N)cc3)cc2)cc(S(=O)(=O)O)c2ccccc12 [Congo red]
Congo red pre-incubated with PrP before RADA exposure
  inhibition of binding of PrP to RADA: dose-dependent inhibition
Congo red pre-incubation with PrP, Mann-Whitney
  Congo red concentration with significant inhibition of PrP binding: 1 µM
RADA pre-incubated with Congo red before or after plate binding
  inhibition of binding of PrP: ineffective
